Where “and” joins values, the source holds several entries; their conditions need not be identical. Equal values may be shown once.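 Growth conditions: 96-well plates. Treatment: test compound, 48 hours, 5 concentrations. Analysis: linear interpolation between bracketing concentrations; unreached endpoints set to highest concentration. TGI denotes the concentration required for complete inhibition of growth.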 Starred links: 1 amine or outer side, 2 acyl side, 3 side chain; linkers in the order of their positions; H or OH if unused. Positions of bridges follow the written chain, without caps; N, C: chain ends. Non-standard residues stand in square brackets, D forms with d. Residues, ends and D or L forms follow the SMILES beside them. Chains are numbered I, II in the order given. Actinocin(1to9) = Cc1c2oc3c(C)ccc(C(=O)[*:2])c3nc-2c(C(=O)[*:1])c(N)c1=O; NMeV = CN[CH](C(=O)O)C(C)C; Sar = CNCC(=O)O
Key:
Test in all cases: DTP human tumour cell line panel, 48 h
OVCAR-5 ovarian = tested on: OVCAR-5 ovarian
SF-295 CNS = tested on: SF-295 CNS
KM12 colon = tested on: KM12 colon
SK-MEL-2 melanoma = tested on: SK-MEL-2 melanoma
T-47D breast = tested on: T-47D breast
RXF 393 renal = tested on: RXF 393 renal
SNB-78 CNS = tested on: SNB-78 CNS
DMS 114 small cell lung = tested on: DMS 114 small cell lung
HOP-18 NSCLC = tested on: HOP-18 NSCLC
LXFL 529 NSCLC = tested on: LXFL 529 NSCLC
DLD-1 colon = tested on: DLD-1 colon
KM20L2 colon = tested on: KM20L2 colon
M19-MEL melanoma = tested on: M19-MEL melanoma
DMS 273 small cell lung = tested on: DMS 273 small cell lung

| SMILES | TGI (OVCAR-5 ovarian) | TGI (SF-295 CNS) [µM] | TGI (KM12 colon) [µM] | TGI (SK-MEL-2 melanoma) [µM] | TGI (T-47D breast) [µM] | TGI (RXF 393 renal) | TGI (SNB-78 CNS) [µM] | TGI (DMS 114 small cell lung) [µM] | TGI (HOP-18 NSCLC) [µM] | TGI (LXFL 529 NSCLC) [µM] | TGI (DLD-1 colon) [µM] | TGI (KM20L2 colon) [µM] | TGI (M19-MEL melanoma) [µM] | TGI (DMS 273 small cell lung) [µM] |
| --- | --- | --- | --- | --- | --- | --- | --- | --- | --- | --- | --- | --- | --- | --- |
| Nc1c(C(=O)O)nnc2cc(Cl)c(Cl)cc12 | > 100 µM | > 100 | > 100 | > 100 | > 100 |  |  |  |  |  |  |  |  |  |
| COc1ccc(C2NC(=S)Nc3c2c(=O)oc2c3ccc3ccccc32)cc1 (configuration not stated) | > 100 µM | > 100 | > 100 | > 100 | > 100 | > 100 µM |  |  |  |  |  |  |  |  |
| Cc1cc(C)n(CC(Cn2nc(C)cc2C)=C(/C(Cl)=C(/Cl)Nc2ccc([N+](=O)[O-])cc2)[N+](=O)[O-])n1 | 33.2 µM | 20.9 | 6.55 | 11.8 | 17.3 | 12.3 µM |  |  |  |  |  |  |  |  |
| COc1nc2[nH]ccc2c(=O)[nH]1 | > 100 µM | > 100 | > 100 | > 100 |  | > 100 µM | > 100 | > 100 | > 100 | > 100 | > 100 | > 100 |  |  |
| Cn1cnc([N+](=O)[O-])c1Sc1nc(N)nc2c1ncn2C1OC(CO)C(O)C1O (configuration not stated) | > 100 µM | > 72.6 | 32.7 | 21.1 | > 100 | 21.6 µM | > 100 | > 100 | > 100 | > 100 | > 100 | 28.8 | > 100 | > 100 |
| CCC(C)C1NC(=O)C(NC(=O)c2c3nc4c(C(=O)NC5C(=O)NC(C(C)CC)C(=O)N6CCCC6C(=O)N(C)CC(=O)N(C)C(C(C)C)C(=O)OC5C)ccc(C)c4oc-3c(C)c(=O)c2N)C(C)OC(=O)C(C(C)C)N(C)C(=O)CN(C)C(=O)C2CCCN2C1=O (configuration not stated) (I: TIP[Sar][NMeV] / II: TIP[Sar][NMeV]; ester I:1-I:C, II:1-II:C; linker I:N-II:N via Actinocin(1to9); configuration not given here) | 0.0273 µM and 0.0172 µM |  | 0.194 | 0.00277 | 0.0122 | 0.0214 µM and 0.048 µM |  |  |  |  |  |  |  |  |
| CC(C)(C)OC(=O)n1c2ccccc2c2c(=O)nc(N3CCCCC3)sc21 | > 100 µM | > 100 | > 100 | > 100 | > 100 |  |  |  |  |  |  |  |  |  |
| O=C(CSc1nc2ccc([N+](=O)[O-])cc2s1)c1ccc2ccccc2c1 | > 100 µM | > 100 | > 100 | > 100 | > 100 | > 100 µM |  |  |  |  |  |  |  |  |
| CN(C)c1ccc(C=Nc2ccc(Oc3ccc(Cl)cc3)c(Cl)c2)cc1 | > 100 µM | 50.9 | 34.2 | 37.4 | 75.3 |  |  |  |  |  |  |  |  |  |
| Nc1ncnc2c1sc1nc3ccccc3n12 | > 100 µM | > 100 | > 85 | > 100 | > 100 | > 69.1 µM |  |  |  |  |  |  |  |  |
| Cc1ccccc1N=Nc1c(O)c(S(=O)(=O)O)cc2cc(S(=O)(=O)O)ccc12 | > 100 µM | > 100 | > 100 | > 100 | > 100 | > 100 µM |  |  |  |  |  |  |  |  |
| COc1cc2oc(=O)ccc2cc1C(=O)CC(C)C | > 100 µM | > 100 | > 100 | > 100 | > 100 |  |  |  |  |  |  |  |  |  |
| O=c1ccc2nc3cc(Br)ccc3sc-2c1 | > 100 µM | > 100 | > 100 | > 100 |  |  | > 100 | > 100 |  | > 100 | > 100 | > 100 | > 100 | > 100 |
| O=c1c2cc(I)ccc2nc(SCc2nncs2)n1Cc1ccccc1 | > 100 µM | > 100 | > 100 | 85.5 | > 100 | 81.6 µM |  |  |  |  |  |  |  |  |
| C[N+]1(CCC(=O)c2ccco2)CC2CCC(CC2)C1 (configuration not stated) | > 100 µM | > 100 | > 100 | > 100 | > 100 | > 100 µM |  |  |  |  |  |  |  |  |
| Cn1c(=O)[nH]c2nncnc2c1=O | > 625 µM | 325 | > 353 | 312 |  | 123 µM | > 625 | 345 | 61.1 |  | > 625 | > 306 | 115 | 106 |
| O=c1[nH]c2nnc(COc3ccc(Cl)cc3Cl)n2nc1Cc1ccccc1 | > 100 µM | > 100 | > 100 | > 100 | > 100 | 44.6 µM |  |  |  |  |  |  |  |  |
| Cc1c(N2C(=O)/C(=C/c3ccc(Cl)cc3)N=C2c2ccccc2)c(=O)n(-c2ccccc2)n1C | > 100 µM | > 100 | > 100 | 39.9 | > 100 | 76.8 µM |  |  |  |  |  |  |  |  |

— PubChem BioAssay (NCI)
